Measured values reported in patent US20100311835A1, “CIS-9, TRANS-11 ISOMER OF CONJUGATED LINOLEIC ACID (CLA) FOR TREATING INFLAMMATORY DISEASES” (COGNIS IP MANAGEMENT GMBH, priority 2003, published 2010).

What was measured:
[1] = tested on: IL-8; experiment: IL-8 in cell culture supernatants by ELISA, stimulated NHBE; assay type: cell-based, human; settings: 24 h
Method: (§1) • Cell cultures. The transformed human bronchial epithelial cell line BEAS-2B (Clonetics Cell Systems, St. Katharinen, Germany) and the normal human bronchial epithelial cell line in primary culture (American Type Culture Collection, Manassas, Va., USA) were cultured in T-25-tissue flasks in bronchial/tracheal epithelial cell basal medium (BEBM) supplemented with a variety of growth factors including bovine pituitary extract (0,052 mg/mL), human recombinant epidermal growth factor (0.5 ng/mL), hydrocortisone (0.5 μg/mL), epinephrine (0.5 μg/mL), transferrin (0.01 mg/mL), insulin (5 μg/mL), retinoic acid (0.1 ng/mL), triiodthyronine (6.5 ng/mL), gentamicin (0.05 mg/mL) and amphotericin (0.05 μg/mL), all purchased from Clonetics Cell Systems (St. Katharinen, Germany). Cultures were held at 37° C. in a humidified atmosphere of 5% CO2 in air and the medium was changed every other day. • Stimulation of cells and fatty acid supplementation. Cis-9,trans-11-CLA and linoleic acid (LA) were obtained from Matreya Inc. (Pleasant Gap, Pa., USA). Purified fatty acids in oil form were dissolved in 96% ethanol to give a 20-mM stock solution, which was further diluted in growth medium to produce the range of test concentrations (20 μg/mL, 10 μg/mL and 5 μg/mL CLA and LA, respectively). At confluence, the cells were detached by exposure to trypsin/EDTA solution (0.05/0.02% in Ca^2+- and Mg^2+-free phosphate buffered saline; Biochrom AG, Krefeld, Germany) and reseeded in 12-well plates at a concentration of 1×10^5 cells/well and cultured for 24 h to allow the cells to attach to the substratum. The medium was then replaced and a final volume of 1 ml of each CLA- and LA-test concentrations, supplemented with 5 μg LPS/mL (lipopolysaccharide, E-coli serotype 026:B6, Sigma, Taufkirchen, Germany) and 10% serum from allergic donors, was added to the wells. A similar volume of fatty acid-free medium containing the indicated stimuli and 0.4% ethanol, corresponding to the max. volume in experimental wells, was used in stimulated control. 1 ml of fresh growth medium containing 0.4% ethanol without any fatty acid and stimuli underwent the same measures of preparation and represented the unstimulated control. After incubation for 24 h at 37° C., supernatants were harvested, separated from non-adherent cells and cell debris by centrifugation (1300 rpm, 10 min), and kept at −20° C. until cytokine analysis. Cells were trypsinised to determine cell numbers and allow quantification of differences in cell proliferation in response to different treatments. • Measurement of IL-6 and IL-8 in cell culture supernatants. IL-6 and IL-8 production of epithelial cells were estimated in duplicate by enzyme-linked immunosorbent assay using commercially available ELISA kits (Pharmingen, Heidelberg, Germany) according to the manufacturer's guidelines. Standard curves and blank buffer were included in duplicate in each assay. When necessary, samples were diluted to fit into the assay range. Specific interleukin concentrations were expressed as picograms of interleukin per millilitre. • Estimation of cytokine gene expression with RT-PCR. Cultures of BEAS-2B and NHBE at an initial density of 1×10^5 cells/well were stimulated as described above and treated with cis-9,trans-11-CLA or LA in the highest concentration (20 μg/mL) for 4 h or 12 h before total cellular RNA was isolated for cytokine gene expression analysis by reverse transcriptase-polymerase chain reaction. Total RNA preparations were performed by DNase treatment according to the standard protocol of the High-Pure™ RNA isolation kit from Roche (Mannheim, Germany). For RT-PCR analysis, first strand cDNA was synthesized from extracted RNA using random primers, reagents and conditions supplied in the ProSTAR™ First-Strand RT-PCR kit from Stratagene (Amsterdam, Netherlands). One-tenth of the synthesized cDNA was subjected to PCRamplification in a total volume of 25 μl. […]

[2] = tested on: IL-6; experiment: IL-6 in cell culture supernatants by ELISA, stimulated NHBE; assay type: cell-based, human; settings: 24 h
Method: as §1

[3] = tested on: IL-8; experiment: IL-8 in cell culture supernatants by ELISA, stimulated BEAS-2B; assay type: cell-based, human
Method: as §1

[4] = tested on: IL-6; experiment: IL-6 in cell culture supernatants by ELISA, stimulated BEAS-2B; assay type: cell-based, human
Method: as §1

[5] = tested on: NHBE; experiment: Proliferation of LPS/serum-stimulated cells (cell numbers after 24 h); assay type: cell-based, human
Method: as §1

[6] = tested on: BEAS-2B; experiment: as above; assay type: cell-based, human
Method: as §1

[7] = tested on: IL-8 mRNA; experiment: Quantification of IL-8 mRNA by RT-PCR in stimulated bronchial epithelial cells; assay type: cell-based, human; settings: 20 μg/mL, 4 h and 12 h, LPS/serum-stimulated, RT-PCR with cyclophilin as internal standard
Method: (§2) • Cell cultures. The transformed human bronchial epithelial cell line BEAS-2B (Clonetics Cell Systems, St. Katharinen, Germany) and the normal human bronchial epithelial cell line in primary culture (American Type Culture Collection, Manassas, Va., USA) were cultured in T-25-tissue flasks in bronchial/tracheal epithelial cell basal medium (BEBM) supplemented with a variety of growth factors including bovine pituitary extract (0,052 mg/mL), human recombinant epidermal growth factor (0.5 ng/mL), hydrocortisone (0.5 μg/mL), epinephrine (0.5 μg/mL), transferrin (0.01 mg/mL), insulin (5 μg/mL), retinoic acid (0.1 ng/mL), triiodthyronine (6.5 ng/mL), gentamicin (0.05 mg/mL) and amphotericin (0.05 μg/mL), all purchased from Clonetics Cell Systems (St. Katharinen, Germany). Cultures were held at 37° C. in a humidified atmosphere of 5% CO2 in air and the medium was changed every other day. • Stimulation of cells and fatty acid supplementation. […] Cells were trypsinised to determine cell numbers and allow quantification of differences in cell proliferation in response to different treatments. • Measurement of IL-6 and IL-8 in cell culture supernatants. […] Specific interleukin concentrations were expressed as picograms of interleukin per millilitre. • Estimation of cytokine gene expression with RT-PCR. […]

[8] = tested on: IL-6 mRNA; experiment: Quantification of IL-6 mRNA by RT-PCR in stimulated bronchial epithelial cells; assay type: cell-based, human; settings: 20 μg/mL, 4 h and 12 h, LPS/serum-stimulated, RT-PCR with cyclophilin as internal standard
Method: as §2

[9] = tested on: eosinophilic granuloctyes; experiment: Apoptosis of eosinophilic granulocytes in vitro; assay type: cell-based
[10] = 5 μg/mL, vs stimulated control+
[11] = 10 μg/mL, vs stimulated control+
[12] = 20 μg/mL, vs stimulated control+
[13] = BEAS-2B, 5 μg/mL, 24 h, vs stimulated control+
[14] = BEAS-2B, 10 μg/mL, 24 h, vs stimulated control+
[15] = BEAS-2B, 20 μg/mL, 24 h, vs stimulated control+
[16] = in vitro, compared to a placebo
[17] = BEAS-2B, 5 μg/mL, 24 h, LPS/serum-stimulated
[18] = BEAS-2B, 10 μg/mL, 24 h, LPS/serum-stimulated

Row | SMILES | pg IL (cytokine release/100.000 cells) ([1]; 5 μg/mL) | pg IL (cytokine release/100.000 cells) ([1]; 10 μg/mL) | pg IL (cytokine release/100.000 cells) ([1]; 20 μg/mL) | pg IL (cytokine release/100.000 cells) ([2]; 5 μg/mL) | pg IL (cytokine release/100.000 cells) ([2]; 10 μg/mL) | pg IL (cytokine release/100.000 cells) ([2]; 20 μg/mL) | pg IL (cytokine release/100.000 cells) ([3]; BEAS-2B, 5 μg/mL, 24 h) | pg IL (cytokine release/100.000 cells) ([3]; BEAS-2B, 10 μg/mL, 24 h) | pg IL (cytokine release/100.000 cells) ([3]; BEAS-2B, 20 μg/mL, 24 h) | pg IL (cytokine release/100.000 cells) ([4]; BEAS-2B, 5 μg/mL, 24 h) | pg IL (cytokine release/100.000 cells) ([4]; BEAS-2B, 10 μg/mL, 24 h) | pg IL (cytokine release/100.000 cells) ([4]; BEAS-2B, 20 μg/mL, 24 h) | % inhibition of proliferation ([5]; 5 μg/mL, LPS/serum-stimulated) | % inhibition of proliferation ([5]; 10 μg/mL, LPS/serum-stimulated) | % inhibition of proliferation [6, 17] | % inhibition of proliferation [6, 18] | IL-8 mRNA accumulation compared with stimulated control (c+) [7] | IL-6 mRNA accumulation compared with stimulated control (c+) [8] | other results
1 | CCCCCC/C=C/C=C\CCCCCCCC(=O)O (single isomer, unassigned) [CLA, cis-9,trans-11 isomer of conjugated linoleic acid] | 6212 ± 513 pg/100.000 cells | 5659 ± 812 pg/100.000 cells | 6793 ± 545 pg/100.000 cells | 2049 ± 262 pg/100.000 cells | 2062 ± 707 pg/100.000 cells | 1731 ± 387 pg/100.000 cells | 1774 ± 154 pg/100.000 cells | 1667 ± 160 pg/100.000 cells | 1458 ± 136 pg/100.000 cells | 983 ± 175 pg/100.000 cells | 841 ± 184 pg/100.000 cells | 792 ± 152 pg/100.000 cells | 5.3 ± 3.7% | 15.4±3.6% | 7.9±5.1% | 19.3±5.0% | diminished | diminished | % inhibition of IL-8-secretion [1, 10]: 33.3 ± 8.1%; % inhibition of IL-8-secretion [1, 11]: 46.0±8.1%; % inhibition of IL-8-secretion [1, 12]: 35.9 ± 11.4%; % inhibition of IL-6-secretion [2, 10]: 56.9±4.9%; % inhibition of IL-6-secretion [2, 11]: 62.3 ± 10.2%; % inhibition of IL-6-secretion [2, 12]: 68.6±5.3%; % inhibition of IL-8-secretion [3, 13]: 25.6±3.6%; % inhibition of IL-8-secretion [3, 14]: 38.8 ± 5.2%; % inhibition of IL-8-secretion [3, 15]: 55.2±5.2%; reduced expression of IL-8 (summary statement) [3, 16]: about 50%; % inhibition of IL-6-secretion [4, 13]: 59.9±7.1%; % inhibition of IL-6-secretion [4, 14]: 69.7 ± 7.6%; % inhibition of IL-6-secretion [4, 15]: 76.4±4.4%; reduced expression of IL-6 (summary statement) [4, 16]: about 70%; % inhibition of proliferation ([5]; 20 μg/mL, LPS/serum-stimulated): 17.4±2.8%; % inhibition of proliferation ([6]; BEAS-2B, 20 μg/mL, 24 h, 5 μg LPS/mL + 10% serum from allergic donors): 32.7±5.0%; inhibition of cell proliferation of bronchial epithelial cells (summary statement) ([6]; in vitro, epithelial cells, mainly bronchial epithelial cells): up to 30%; apoptosis of eosinophilic granulocytes [9]: support of apoptosis
2 | CCCCC/C=C\C/C=C\CCCCCCCC(=O)O [LA, cis-9,cis-12-octadecadienoic acid, reference compound] | 6820 ± 543 pg/100.000 cells | 6252 ± 462 pg/100.000 cells | 5420 ± 1032 pg/100.000 cells | 3052 ± 292 pg/100.000 cells | 2906 ± 530 pg/100.000 cells | 2007 ± 924 pg/100.000 cells | 1483 ± 209 pg/100.000 cells | 1341 ± 110 pg/100.000 cells | 1533 ± 121 pg/100.000 cells | 1440 ± 78 pg/100.000 cells | 1220 ± 120 pg/100.000 cells | 1181 ± 256 pg/100.000 cells | no effect | no effect | no effect | no effect | no effect | no effect | inhibition at 5 µg/mL ([1]; Homo sapiens, 5 μg/mL, vs stimulated control+, read-out: % inhibition of IL-8-secretion): 22.8 ± 5.2%; inhibition at 10 µg/mL ([1]; Homo sapiens, 10 μg/mL, vs stimulated control+, read-out: % inhibition of IL-8-secretion): 27.8 ± 10.8%; inhibition at 20 µg/mL ([1]; Homo sapiens, 20 μg/mL, vs stimulated control+, read-out: % inhibition of IL-8-secretion): 43.3 ± 14.3%; inhibition at 5 µg/mL ([2]; Homo sapiens, 5 μg/mL, vs stimulated control+, read-out: % inhibition of IL-6-secretion): 32.1 ± 5.6%; inhibition at 10 µg/mL ([2]; Homo sapiens, 10 μg/mL, vs stimulated control+, read-out: % inhibition of IL-6-secretion): 35 ± 8.6%; inhibition at 20 µg/mL ([2]; Homo sapiens, 20 μg/mL, vs stimulated control+, read-out: % inhibition of IL-6-secretion): 60 ± 16.3%; inhibition at 5 µg/mL ([3]; Homo sapiens, BEAS-2B, 5 μg/mL, 24 h, vs stimulated control+, read-out: % inhibition of IL-8-secretion): 19.3 ± 8.7%; inhibition at 10 µg/mL ([3]; Homo sapiens, BEAS-2B, 10 μg/mL, 24 h, vs stimulated control+, read-out: % inhibition of IL-8-secretion): 30.6 ± 3.6%; inhibition at 20 µg/mL ([3]; Homo sapiens, BEAS-2B, 20 μg/mL, 24 h, vs stimulated control+, read-out: % inhibition of IL-8-secretion): 33.5 ± 5%; inhibition at 5 µg/mL ([4]; Homo sapiens, BEAS-2B, 5 μg/mL, 24 h, vs stimulated control+, read-out: % inhibition of IL-6-secretion): 23.1 ± 8.9%; inhibition at 10 µg/mL ([4]; Homo sapiens, BEAS-2B, 10 μg/mL, 24 h, vs stimulated control+, read-out: % inhibition of IL-6-secretion): 38.4 ± 6.6%; inhibition at 20 µg/mL ([4]; Homo sapiens, BEAS-2B, 20 μg/mL, 24 h, vs stimulated control+, read-out: % inhibition of IL-6-secretion): 50.2 ± 14.1%; inhibition at 20 µg/mL ([5]; Homo sapiens, 20 μg/mL, LPS/serum-stimulated): 8.4 ± 2.1%; effect on proliferation at lower concentrations ([5]; concentrations below 20 μg/mL): caused cell growth; effect on proliferation at lower concentrations ([6]; BEAS-2B, concentrations below 20 μg/mL, 24 h): caused cell growth; inhibition at 20 µg/mL ([6]; Homo sapiens, BEAS-2B, 20 μg/mL, 24 h, 5 μg LPS/mL + 10% serum from allergic donors): 4.7 ± 6.9%
